# According to ChEMBL document CHEMBL1201862, “PubChem BioAssay data set” (2004):
#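 Interpolation was linear, between the two tested concentrations surrounding the appropriate level; five concentrations were tested over 48 hours in 96-well plates. GI50: concentration for 50% inhibition of growth.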 Calls of active or inactive are those of the source. Cut-off read from the data, not from the text of the source: active = GI50 up to about 1.1 µM and inactive = higher.
# Tests used:
# Experiment in all cases: NCI tumour cell line growth inhibition, 48 h
# HCT-15 = system: HCT-15
# UO-31 = system: UO-31
# HOP-92 = system: HOP-92
# EKVX = system: EKVX
# LXFL 529 = system: LXFL 529
# K562 = system: K562
# HOP-18 = system: HOP-18
# KM-20L2 = system: KM-20L2
# SK-OV-3 = system: SK-OV-3
# 786-0 = system: 786-0
# XF498 = system: XF498
# UACC-257 = system: UACC-257
# COLO 205 = system: COLO 205
# IGROV-1 = system: IGROV-1
# SNB-75 = system: SNB-75
# OVCAR-4 = system: OVCAR-4
# NCI-H522 = system: NCI-H522
# SF-268 = system: SF-268
# DLD-1 = system: DLD-1
# MOLT-4 = system: MOLT-4
# M19-MEL = system: M19-MEL
# HOP-62 = system: HOP-62
# SN12C = system: SN12C
# SNB-19 = system: SNB-19
# SR = system: SR
# RPMI-8226 = system: RPMI-8226
# ACHN = system: ACHN
# HCT-116 = system: HCT-116
# SW-620 = system: SW-620
# SNB-78 = system: SNB-78
# OVCAR-8 = system: OVCAR-8
# DMS-273 = system: DMS-273
# NCI-H226 = system: NCI-H226
# SF-295 = system: SF-295
# A498 = system: A498
# A549 = system: A549
# U-251 = system: U-251
# UACC-62 = system: UACC-62
# Malme-3M = system: Malme-3M
# CCRF-CEM = system: CCRF-CEM
# NCI-H23 = system: NCI-H23
# SF-539 = system: SF-539
# HCC 2998 = system: HCC 2998
# SK-MEL-5 = system: SK-MEL-5
# HL-60 = system: HL-60
# RXF 393 = system: RXF 393
# M14 = system: M14
# HT-29 = system: HT-29
# SK-MEL-28 = system: SK-MEL-28
# CAKI-1 = system: CAKI-1
# SK-MEL-2 = system: SK-MEL-2
# LOX IMVI = system: LOX IMVI
# KM12 = system: KM12
# OVCAR-5 = system: OVCAR-5
# DMS-114 = system: DMS-114
# OVCAR-3 = system: OVCAR-3
# TK-10 = system: TK-10
# NCI-H460 = system: NCI-H460
smiles,measurement,setting,value
Nc1nc2c3nc(Nc4ccccc4)sc3nc(=O)n2c2sc(Nc3ccccc3)nc12,GI50,HCT-15,> 100 µM
same,GI50,UO-31,> 100 µM (inactive)
same,GI50,HOP-92,> 100 µM (inactive)
same,GI50,EKVX,> 100 µM (inactive)
same,GI50,LXFL 529,> 100 µM (inactive)
same,GI50,K562,> 100 µM (inactive)
same,GI50,HOP-18,> 100 µM (inactive)
same,GI50,KM-20L2,> 100 µM (inactive)
same,GI50,SK-OV-3,> 100 µM (inactive)
same,GI50,786-0,> 100 µM (inactive)
same,GI50,XF498,> 100 µM (inactive)
same,GI50,UACC-257,> 100 µM (inactive)
same,GI50,COLO 205,> 100 µM (inactive)
same,GI50,IGROV-1,> 100 µM (inactive)
same,GI50,SNB-75,> 100 µM (inactive)
same,GI50,OVCAR-4,> 100 µM (inactive)
same,GI50,NCI-H522,> 100 µM (inactive)
same,GI50,SF-268,> 100 µM (inactive)
same,GI50,DLD-1,> 100 µM (inactive)
same,GI50,MOLT-4,> 100 µM (inactive)
same,GI50,M19-MEL,> 100 µM (inactive)
same,GI50,HOP-62,> 100 µM (inactive)
same,GI50,SN12C,> 100 µM (inactive)
same,GI50,SNB-19,> 100 µM (inactive)
same,GI50,SR,> 100 µM (inactive)
same,GI50,RPMI-8226,> 100 µM (inactive)
same,GI50,ACHN,> 100 µM (inactive)
same,GI50,HCT-116,> 100 µM (inactive)
same,GI50,SW-620,> 100 µM (inactive)
same,GI50,SNB-78,> 100 µM (inactive)
same,GI50,OVCAR-8,> 100 µM (inactive)
same,GI50,DMS-273,> 100 µM (inactive)
same,GI50,NCI-H226,> 100 µM (inactive)
same,GI50,SF-295,> 100 µM (inactive)
same,GI50,A498,> 100 µM (inactive)
same,GI50,A549,> 100 µM (inactive)
same,GI50,U-251,> 100 µM (inactive)
same,GI50,UACC-62,> 100 µM (inactive)
same,GI50,Malme-3M,> 100 µM (inactive)
same,GI50,CCRF-CEM,> 100 µM (inactive)
same,GI50,NCI-H23,> 100 µM (inactive)
same,GI50,SF-539,> 100 µM (inactive)
same,GI50,HCC 2998,> 100 µM (inactive)
same,GI50,SK-MEL-5,> 100 µM (inactive)
same,GI50,HL-60,> 100 µM (inactive)
same,GI50,RXF 393,> 100 µM (inactive)
same,GI50,M14,> 100 µM (inactive)
same,GI50,HT-29,> 100 µM (inactive)
same,GI50,SK-MEL-28,> 100 µM (inactive)
S=C1NCCN1,GI50,HCT-15,> 100 µM
same,GI50,UO-31,> 100 µM (inactive)
same,GI50,HOP-92,> 100 µM (inactive)
same,GI50,EKVX,> 100 µM (inactive)
same,GI50,LXFL 529,> 100 µM (inactive)
same,GI50,K562,> 100 µM (inactive)
same,GI50,CAKI-1,> 100 µM (inactive)
same,GI50,SK-MEL-2,> 100 µM (inactive)
same,GI50,KM-20L2,> 100 µM (inactive)
same,GI50,SK-OV-3,> 100 µM (inactive)
same,GI50,786-0,> 100 µM (inactive)
same,GI50,XF498,> 100 µM (inactive)
same,GI50,UACC-257,> 100 µM (inactive)
same,GI50,COLO 205,> 100 µM (inactive)
same,GI50,IGROV-1,> 100 µM (inactive)
same,GI50,SNB-75,> 100 µM (inactive)
same,GI50,OVCAR-4,> 100 µM (inactive)
same,GI50,NCI-H522,> 100 µM (inactive)
same,GI50,SF-268,> 100 µM (inactive)
same,GI50,DLD-1,> 100 µM (inactive)
same,GI50,MOLT-4,> 100 µM (inactive)
same,GI50,M19-MEL,> 100 µM (inactive)
same,GI50,HOP-62,> 100 µM (inactive)
same,GI50,SN12C,> 100 µM (inactive)
same,GI50,SNB-19,> 100 µM (inactive)
same,GI50,SR,> 100 µM (inactive)
same,GI50,LOX IMVI,> 100 µM (inactive)
same,GI50,RPMI-8226,> 100 µM (inactive)
same,GI50,ACHN,> 100 µM (inactive)
same,GI50,HCT-116,> 100 µM (inactive)
same,GI50,SW-620,> 100 µM (inactive)
same,GI50,KM12,> 100 µM (inactive)
same,GI50,SNB-78,> 100 µM (inactive)
same,GI50,OVCAR-8,> 100 µM (inactive)
same,GI50,OVCAR-5,> 100 µM (inactive)
same,GI50,DMS-273,> 100 µM (inactive)
same,GI50,DMS-114,> 100 µM (inactive)
same,GI50,OVCAR-3,> 100 µM (inactive)
same,GI50,NCI-H226,> 100 µM (inactive)
same,GI50,SF-295,> 100 µM (inactive)
same,GI50,A549,> 100 µM (inactive)
same,GI50,U-251,> 100 µM (inactive)
same,GI50,UACC-62,> 100 µM (inactive)
same,GI50,Malme-3M,> 100 µM (inactive)
same,GI50,TK-10,> 100 µM (inactive)
same,GI50,CCRF-CEM,> 100 µM (inactive)
same,GI50,NCI-H23,> 100 µM (inactive)
same,GI50,SF-539,> 100 µM (inactive)
same,GI50,SK-MEL-5,> 100 µM (inactive)
same,GI50,HL-60,> 100 µM (inactive)
same,GI50,M14,> 100 µM (inactive)
same,GI50,HT-29,> 100 µM (inactive)
same,GI50,SK-MEL-28,> 100 µM (inactive)
CC1(S)CC2C(CC1Sc1ccccc1)C2(C)C (centres undefined),GI50,HCT-15,> 100 µM
same,GI50,UO-31,> 100 µM (inactive)
same,GI50,HOP-92,> 100 µM (inactive)
same,GI50,EKVX,> 100 µM (inactive)
same,GI50,LXFL 529,> 100 µM (inactive)
same,GI50,K562,> 100 µM (inactive)
same,GI50,SK-MEL-2,> 100 µM (inactive)
same,GI50,HOP-18,> 100 µM (inactive)
same,GI50,SK-OV-3,> 100 µM (inactive)
same,GI50,786-0,> 100 µM (inactive)
same,GI50,XF498,> 100 µM (inactive)
same,GI50,UACC-257,> 100 µM (inactive)
same,GI50,COLO 205,> 100 µM (inactive)
same,GI50,IGROV-1,> 100 µM (inactive)
same,GI50,SNB-75,> 100 µM (inactive)
same,GI50,OVCAR-4,> 100 µM (inactive)
same,GI50,SF-268,> 100 µM (inactive)
same,GI50,DLD-1,> 100 µM (inactive)
same,GI50,MOLT-4,> 100 µM (inactive)
same,GI50,M19-MEL,> 100 µM (inactive)
same,GI50,SN12C,> 100 µM (inactive)
same,GI50,RPMI-8226,> 100 µM (inactive)
same,GI50,ACHN,> 100 µM (inactive)
same,GI50,HCT-116,> 100 µM (inactive)
same,GI50,KM12,> 100 µM (inactive)
same,GI50,SNB-78,> 100 µM (inactive)
same,GI50,OVCAR-8,> 100 µM (inactive)
same,GI50,OVCAR-5,> 100 µM (inactive)
same,GI50,DMS-273,> 100 µM (inactive)
same,GI50,DMS-114,> 100 µM (inactive)
same,GI50,OVCAR-3,> 100 µM (inactive)
same,GI50,NCI-H226,> 100 µM (inactive)
same,GI50,SF-295,> 100 µM (inactive)
same,GI50,A549,> 100 µM (inactive)
same,GI50,NCI-H460,> 100 µM (inactive)
same,GI50,U-251,> 100 µM (inactive)
same,GI50,Malme-3M,> 100 µM (inactive)
same,GI50,TK-10,> 100 µM (inactive)
same,GI50,CCRF-CEM,> 100 µM (inactive)
same,GI50,NCI-H23,> 100 µM (inactive)
same,GI50,SF-539,> 100 µM (inactive)
same,GI50,HCC 2998,> 100 µM (inactive)
same,GI50,SK-MEL-5,8.67 µM (inactive)
same,GI50,HL-60,> 100 µM (inactive)
same,GI50,M14,> 100 µM (inactive)
same,GI50,HT-29,> 100 µM (inactive)
same,GI50,SK-MEL-28,> 100 µM (inactive)
